Structures are written as SMILES.

For 22 molecules, inhibition of growth and inhibition in vivo results are on record in ChEMBL document CHEMBL3045644, “Synthesis anti-inflammatory and anticancer activity evaluation of some pyrazole and oxadiazole derivatives” (2012).

Assay type in all cases: functional
One assay has as its system HepG2. Briefly: Growth inhibition of Homo sapiens (human) HepG2 cells at 10 uM after 48 hr by SRB assay. To be noted: HepG2, 48 h, read-out: GI.
The test system of a further assay is Rattus norvegicus. Briefly: Anti-inflammatory activity in Charles Foster albino Rattus norvegicus (rat) assessed as inhibition of carrageenan-induced paw edema at 50 mg/kg, po […] measured up to 3 hr relative to control.
The next assay relates to PA-1. Briefly: Growth inhibition of Homo sapiens (human) PA1 cells at 10 uM after 48 hr by SRB assay. To be noted: PA-1, 48 h, read-out: GI.
For the next assay, the system named is NCI-H522. Briefly: Growth inhibition of Homo sapiens (human) NCI-H522 cells at 10 uM after 48 hr by SRB assay. To be noted: NCI-H522, 48 h, read-out: GI.
The test system of a further assay is T47D. The assay can be described thus: Growth inhibition of Homo sapiens (human) T47D cells at 10 uM after 48 hr by SRB assay. The note with it: read-out: GI.
A further assay deals with HCT-15. Briefly: Growth inhibition of Homo sapiens (human) HCT15 cells at 10 uM after 48 hr by SRB assay. The note with it: HCT-15, 48 h, read-out: GI.

Take `COc1ccc(OC)c(C2CC(c3ccccn3)=NN2c2ccccc2)c1` (centres undefined): the inhibition of growth at 10 µM in the assay on HepG2 was found to be 20%; in the assay with PA-1 it was 18%; in the assay with NCI-H522, 16%; with T47D, 12%; in the assay on HCT-15, 9%. Also, the inhibition in vivo at 50 mg/kg in the assay with Rattus norvegicus amounted to 27%.

Consider `CN(C)c1ccc(C2CC(c3ccccn3)=NN2)cc1` (centres undefined), for which the inhibition of growth at 10 µM turned out to be 29% in the assay with HepG2; 21% in the assay on PA-1; 34% with NCI-H522; 3% in the assay with T47D; 5% with HCT-15. The inhibition in vivo at 50 mg/kg in the assay on Rattus norvegicus was found to be 18%.

For `COc1cc(-c2nc(-c3cnccn3)no2)ccc1O`, the inhibition of growth at 10 µM in the assay with HepG2 turned out to be 20%; with PA-1, 20%; in the assay with NCI-H522, 20%; in the assay on T47D it was 35%; in the assay with HCT-15, 1%. The inhibition in vivo at 50 mg/kg with Rattus norvegicus amounted to 26%.

Take `COc1ccc(OC)c(C2CC(c3ccncc3)=NN2c2ccccc2)c1` (centres undefined): the inhibition of growth at 10 µM is 32% in the assay with HepG2; 31% with PA-1; 29% with NCI-H522; 37% in the assay with T47D; 5% in the assay with HCT-15. Besides, the inhibition in vivo at 50 mg/kg in the assay with Rattus norvegicus was 18%.

`COc1ccc(OC)c(C2CC(c3cccnc3)=NN2c2ccccc2)c1` (centres undefined): the inhibition of growth at 10 µM in the assay on HepG2 amounted to 26%; in the assay with PA-1, 32%; with NCI-H522 it was 32%; in the assay on T47D, 22%; in the assay with HCT-15, 7%. Besides, the inhibition in vivo at 50 mg/kg in the assay on Rattus norvegicus is 24%.

For the molecule `COc1ccc(OC)c(C2CC(c3ccncc3)=NN2)c1` (centres undefined), the inhibition of growth at 10 µM in the assay with HepG2 was 34%; in the assay with PA-1, 24%; with NCI-H522, 24%; in the assay on T47D, 19%; with HCT-15, 28%. The inhibition in vivo at 50 mg/kg with Rattus norvegicus came out at 13%.

As for `COc1ccc(OC)c(-c2nc(-c3ccccn3)no2)c1`, the inhibition of growth at 10 µM in the assay on HepG2 is 33%; in the assay on PA-1 it was 25%; in the assay on NCI-H522 it was 23%; in the assay on T47D, 37%; in the assay with HCT-15, 5%. Moreover, the inhibition in vivo at 50 mg/kg in the assay with Rattus norvegicus is 28%.

For `COc1ccc(OC)c(C2CC(c3ccccn3)=NN2)c1` (centres undefined), the inhibition of growth at 10 µM with HepG2 stood at 23%; in the assay with PA-1, 25%; with NCI-H522, 28%; with T47D it was 26%; in the assay on HCT-15 it was 10%. In the assay with Rattus norvegicus, the inhibition in vivo at 50 mg/kg came to 15%.

With `COc1ccc(OC)c(C2CC(c3cccnc3)=NN2)c1` (centres undefined), the inhibition of growth at 10 µM with HepG2 stood at 34%; in the assay on PA-1 it was 31%; in the assay with NCI-H522, 40%; with T47D, 13%; in the assay with HCT-15 it was 4%. Moreover, the inhibition in vivo at 50 mg/kg with Rattus norvegicus came to 15%.

For `COc1cc(-c2nc(-c3ccccn3)no2)ccc1O`, the inhibition of growth at 10 µM amounted to 39% in the assay with HepG2; 30% with PA-1; 48% in the assay with NCI-H522; 33% with T47D; 3% in the assay with HCT-15. Moreover, the inhibition in vivo at 50 mg/kg with Rattus norvegicus is 24%.

Consider `CN(C)c1ccc(C2CC(c3ccccn3)=NN2c2ccccc2)cc1` (centres undefined), for which the inhibition of growth at 10 µM in the assay on HepG2 was found to be 24%; in the assay with PA-1, 16%; with NCI-H522, 26%; in the assay on T47D, 41%; in the assay on HCT-15 it was 12%. The inhibition in vivo at 50 mg/kg in the assay on Rattus norvegicus was found to be 35%.

In the case of `O=P1(N(CCCl)CCCl)NCCCO1` (centres undefined) [CYCLOPHOSPHAMIDE ANHYDROUS], the inhibition of growth at 10 µM stood at 14% with HepG2; 4% with PA-1; 4% in the assay on NCI-H522; 18% with T47D; 5% with HCT-15.

Take `CN(C)c1ccc(C2CC(c3cccnc3)=NN2c2ccccc2)cc1` (centres undefined): the inhibition of growth at 10 µM is 32% in the assay on HepG2; 20% in the assay with PA-1; 20% with NCI-H522; 33% in the assay on T47D; 1% in the assay with HCT-15. Besides, the inhibition in vivo at 50 mg/kg in the assay with Rattus norvegicus was determined as 34%.

As for `COc1ccc(OC)c(-c2nc(-c3cnccn3)no2)c1`, the inhibition of growth at 10 µM is 17% in the assay on HepG2; 26% in the assay on PA-1; 23% with NCI-H522; 41% with T47D; 7% in the assay on HCT-15. The inhibition in vivo at 50 mg/kg in the assay on Rattus norvegicus stood at 11%.

In the case of `O=c1[nH]cc(F)c(=O)[nH]1` [FLUOROURACIL], the inhibition of growth at 10 µM with HepG2 worked out at 18%; in the assay with PA-1 it was 10%; in the assay on NCI-H522, 24%; with T47D, 5%; with HCT-15 it was 8%.

As to `CN(C)c1ccc(C2CC(c3cccnc3)=NN2)cc1` (centres undefined), the inhibition of growth at 10 µM in the assay on HepG2 turned out to be 35%; with PA-1, 36%; in the assay on NCI-H522, 25%; in the assay on T47D it was 15%; with HCT-15, 6%. For the same molecule, in the assay with Rattus norvegicus, the inhibition in vivo at 50 mg/kg is 22%.

As to `COc1cc(-c2nc(-c3ccncc3)no2)ccc1O`, the inhibition of growth at 10 µM is 13% with HepG2; 32% in the assay on PA-1; 25% with NCI-H522; 34% with T47D; 5% in the assay with HCT-15. Besides, the inhibition in vivo at 50 mg/kg in the assay on Rattus norvegicus worked out at 14%.

In the case of `CN(C)c1ccc(C2CC(c3ccncc3)=NN2c2ccccc2)cc1` (centres undefined), the inhibition of growth at 10 µM in the assay with HepG2 was found to be 35%; in the assay on PA-1, 24%; in the assay on NCI-H522, 32%; in the assay on T47D, 7%; with HCT-15 it was 6%. In the assay with Rattus norvegicus, the inhibition in vivo at 50 mg/kg amounted to 32%.

`C[C@@H]1C[C@@H]([C@H](O)CC2CC(=O)NC(=O)C2)C(=O)[C@@H](C)C1` [CYCLOHEXIMIDE]: the inhibition of growth at 10 µM in the assay on HepG2 was 5%; in the assay with PA-1 it was 51%; with NCI-H522 it was 13%; in the assay on T47D, 9%; in the assay on HCT-15, 3%.

With `CN(C)c1ccc(C2CC(c3ccncc3)=NN2)cc1` (centres undefined), the inhibition of growth at 10 µM was determined as 29% with HepG2; 26% in the assay on PA-1; 28% in the assay on NCI-H522; 21% in the assay on T47D; 3% with HCT-15. Moreover, in the assay on Rattus norvegicus, the inhibition in vivo at 50 mg/kg amounted to 0%.

With `COc1ccc(OC)c(-c2nc(-c3ccncc3)no2)c1`, the inhibition of growth at 10 µM with HepG2 turned out to be 27%; in the assay with PA-1 it was 19%; with NCI-H522 it was 10%; with T47D it was 25%; with HCT-15 it was 2%. In the assay with Rattus norvegicus, the inhibition in vivo at 50 mg/kg came to 35%.

Take `CC(C)Cc1ccc(C(C)C(=O)O)cc1` (centres undefined) [IBUPROFEN]: the inhibition in vivo at 50 mg/kg in the assay on Rattus norvegicus stood at 39%.
